Laboratory results published in patent US20260209193A1, “NOVEL INHIBITORS OF DNA DAMAGE RESPONSES FOR CANCER THERAPY” (The Regents of the University of California, priority 2022, published 2026).

Columns and labels:
PARP1 = target: T1, PARP1 (Homo sapiens, UniProt P09874); experiment: PARP1 trapping, chromatin fractionation (chromatin-bound fraction); format: cell-based
T1 construct: endogenous in cells; host or cells: PC3
Excerpt: The trapped PARP1 forms a toxic lesion and stalls the progress of replication forks. The replication fork collapses in BRCA1/2-deficient cancer cells, and then results in cell death. […] Six cancer cell lines were used in this assay, including two breast cancer cell lines, BRCA1-mutunt SUM149PT-BRCA1mut and SUM149PT-BRCA1rev where deleterious BRCA1 mutation is reverted to form a functional BRCA1, two ovarian cancer cell lines, BRCA1-null UWB1.289 and UWB1.289+BRCA1, a stable cell line in which wild-type BRCA1 function has been restored, and two prostate cancer cell lines, enzalutamide resistant C4-2B/MR which is homologous recombination (HR)-deficient due to Rad51 mutation, and enzalutamide insensitive PC3 which is HR-proficient.

ATR = target: T2, ATR (Homo sapiens, UniProt Q13535); experiment: ATR-mediated signaling: phosphorylation of Rad17 Ser 645 and CHK1 Ser 345 in cells; format: cell-based; conditions: for ATR inhibition potency relative to JC099 (OLA- or UV-induced phosphorylation of Rad17 and CHK1): compared to JC099
T2 construct: endogenous in cells; host or cells: PC3, C4-2B/MR, SUM149PT-BRCA1rev, UWB1.289+BRCA1, MDA-MB-231
Experimental: PARP inhibitor-resistant cells are increasingly dependent on ATR for survival, and ATR inhibition disrupts restored HR and fork protection pathways in PARP inhibitor resistant BRCA-deficient cancer cells. For ATR kinase in vitro assays, ATR was immunoprecipitated with 3 μg of anti-ATR antibody (Bethyl Laboratories, A300-137A) from 1 mg of cell lysate. […] The IC50 was determined by the enzyme profiling service of Eurofins Cerep (France). […] The phosphorylation of CHK1 at Ser 345 sites was used as a bio-marker of ATR-mediated signaling pathway. The phosphorylation of Rad17 at Ser 645, which is a substrate of ATR, was also examined.
ATR inhibition was assessed in C4-2B/MR cells. Considering ATM is a homologous protein of ATR, we also detected the effect of JC046 analogs on the phosphorylation of KAP1 at Ser 824 and CHK2 at Thr 68 sites, which were used as markers of ATM signaling pathway.

[1] = 0.5 μM and 2 μM, PC3 and C4-2B/MR cells
[2] = 1 μM and 2 μM, PC3 and SUM149PT-BRCA1rev cells

T1 sequence (P09874 whole entry, species assumed): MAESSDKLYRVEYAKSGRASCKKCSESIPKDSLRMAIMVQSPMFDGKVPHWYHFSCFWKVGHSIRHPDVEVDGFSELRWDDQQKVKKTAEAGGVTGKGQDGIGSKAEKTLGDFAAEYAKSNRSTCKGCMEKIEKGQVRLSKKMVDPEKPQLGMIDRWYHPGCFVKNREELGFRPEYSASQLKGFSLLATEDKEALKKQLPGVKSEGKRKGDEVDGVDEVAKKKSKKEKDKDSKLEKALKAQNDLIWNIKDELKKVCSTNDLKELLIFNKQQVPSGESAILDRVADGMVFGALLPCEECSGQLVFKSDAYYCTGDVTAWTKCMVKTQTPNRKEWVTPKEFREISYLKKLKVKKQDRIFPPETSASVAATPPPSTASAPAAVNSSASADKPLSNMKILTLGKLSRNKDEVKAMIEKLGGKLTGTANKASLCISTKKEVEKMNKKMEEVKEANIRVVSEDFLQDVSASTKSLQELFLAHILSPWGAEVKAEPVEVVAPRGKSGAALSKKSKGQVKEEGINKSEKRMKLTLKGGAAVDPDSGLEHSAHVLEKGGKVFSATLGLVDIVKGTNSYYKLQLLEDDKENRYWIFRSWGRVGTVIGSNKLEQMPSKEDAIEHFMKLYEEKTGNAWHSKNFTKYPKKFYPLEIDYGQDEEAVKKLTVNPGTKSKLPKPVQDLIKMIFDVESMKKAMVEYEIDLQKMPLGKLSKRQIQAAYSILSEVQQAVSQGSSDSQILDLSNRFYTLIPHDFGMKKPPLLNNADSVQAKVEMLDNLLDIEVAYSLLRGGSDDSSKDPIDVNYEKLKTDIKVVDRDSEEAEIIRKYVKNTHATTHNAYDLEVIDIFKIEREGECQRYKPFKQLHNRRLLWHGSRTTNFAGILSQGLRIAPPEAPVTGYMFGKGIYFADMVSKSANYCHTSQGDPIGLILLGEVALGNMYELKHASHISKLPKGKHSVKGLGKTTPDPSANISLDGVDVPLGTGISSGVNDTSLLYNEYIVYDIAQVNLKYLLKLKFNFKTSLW
T2 sequence (Q13535 whole entry): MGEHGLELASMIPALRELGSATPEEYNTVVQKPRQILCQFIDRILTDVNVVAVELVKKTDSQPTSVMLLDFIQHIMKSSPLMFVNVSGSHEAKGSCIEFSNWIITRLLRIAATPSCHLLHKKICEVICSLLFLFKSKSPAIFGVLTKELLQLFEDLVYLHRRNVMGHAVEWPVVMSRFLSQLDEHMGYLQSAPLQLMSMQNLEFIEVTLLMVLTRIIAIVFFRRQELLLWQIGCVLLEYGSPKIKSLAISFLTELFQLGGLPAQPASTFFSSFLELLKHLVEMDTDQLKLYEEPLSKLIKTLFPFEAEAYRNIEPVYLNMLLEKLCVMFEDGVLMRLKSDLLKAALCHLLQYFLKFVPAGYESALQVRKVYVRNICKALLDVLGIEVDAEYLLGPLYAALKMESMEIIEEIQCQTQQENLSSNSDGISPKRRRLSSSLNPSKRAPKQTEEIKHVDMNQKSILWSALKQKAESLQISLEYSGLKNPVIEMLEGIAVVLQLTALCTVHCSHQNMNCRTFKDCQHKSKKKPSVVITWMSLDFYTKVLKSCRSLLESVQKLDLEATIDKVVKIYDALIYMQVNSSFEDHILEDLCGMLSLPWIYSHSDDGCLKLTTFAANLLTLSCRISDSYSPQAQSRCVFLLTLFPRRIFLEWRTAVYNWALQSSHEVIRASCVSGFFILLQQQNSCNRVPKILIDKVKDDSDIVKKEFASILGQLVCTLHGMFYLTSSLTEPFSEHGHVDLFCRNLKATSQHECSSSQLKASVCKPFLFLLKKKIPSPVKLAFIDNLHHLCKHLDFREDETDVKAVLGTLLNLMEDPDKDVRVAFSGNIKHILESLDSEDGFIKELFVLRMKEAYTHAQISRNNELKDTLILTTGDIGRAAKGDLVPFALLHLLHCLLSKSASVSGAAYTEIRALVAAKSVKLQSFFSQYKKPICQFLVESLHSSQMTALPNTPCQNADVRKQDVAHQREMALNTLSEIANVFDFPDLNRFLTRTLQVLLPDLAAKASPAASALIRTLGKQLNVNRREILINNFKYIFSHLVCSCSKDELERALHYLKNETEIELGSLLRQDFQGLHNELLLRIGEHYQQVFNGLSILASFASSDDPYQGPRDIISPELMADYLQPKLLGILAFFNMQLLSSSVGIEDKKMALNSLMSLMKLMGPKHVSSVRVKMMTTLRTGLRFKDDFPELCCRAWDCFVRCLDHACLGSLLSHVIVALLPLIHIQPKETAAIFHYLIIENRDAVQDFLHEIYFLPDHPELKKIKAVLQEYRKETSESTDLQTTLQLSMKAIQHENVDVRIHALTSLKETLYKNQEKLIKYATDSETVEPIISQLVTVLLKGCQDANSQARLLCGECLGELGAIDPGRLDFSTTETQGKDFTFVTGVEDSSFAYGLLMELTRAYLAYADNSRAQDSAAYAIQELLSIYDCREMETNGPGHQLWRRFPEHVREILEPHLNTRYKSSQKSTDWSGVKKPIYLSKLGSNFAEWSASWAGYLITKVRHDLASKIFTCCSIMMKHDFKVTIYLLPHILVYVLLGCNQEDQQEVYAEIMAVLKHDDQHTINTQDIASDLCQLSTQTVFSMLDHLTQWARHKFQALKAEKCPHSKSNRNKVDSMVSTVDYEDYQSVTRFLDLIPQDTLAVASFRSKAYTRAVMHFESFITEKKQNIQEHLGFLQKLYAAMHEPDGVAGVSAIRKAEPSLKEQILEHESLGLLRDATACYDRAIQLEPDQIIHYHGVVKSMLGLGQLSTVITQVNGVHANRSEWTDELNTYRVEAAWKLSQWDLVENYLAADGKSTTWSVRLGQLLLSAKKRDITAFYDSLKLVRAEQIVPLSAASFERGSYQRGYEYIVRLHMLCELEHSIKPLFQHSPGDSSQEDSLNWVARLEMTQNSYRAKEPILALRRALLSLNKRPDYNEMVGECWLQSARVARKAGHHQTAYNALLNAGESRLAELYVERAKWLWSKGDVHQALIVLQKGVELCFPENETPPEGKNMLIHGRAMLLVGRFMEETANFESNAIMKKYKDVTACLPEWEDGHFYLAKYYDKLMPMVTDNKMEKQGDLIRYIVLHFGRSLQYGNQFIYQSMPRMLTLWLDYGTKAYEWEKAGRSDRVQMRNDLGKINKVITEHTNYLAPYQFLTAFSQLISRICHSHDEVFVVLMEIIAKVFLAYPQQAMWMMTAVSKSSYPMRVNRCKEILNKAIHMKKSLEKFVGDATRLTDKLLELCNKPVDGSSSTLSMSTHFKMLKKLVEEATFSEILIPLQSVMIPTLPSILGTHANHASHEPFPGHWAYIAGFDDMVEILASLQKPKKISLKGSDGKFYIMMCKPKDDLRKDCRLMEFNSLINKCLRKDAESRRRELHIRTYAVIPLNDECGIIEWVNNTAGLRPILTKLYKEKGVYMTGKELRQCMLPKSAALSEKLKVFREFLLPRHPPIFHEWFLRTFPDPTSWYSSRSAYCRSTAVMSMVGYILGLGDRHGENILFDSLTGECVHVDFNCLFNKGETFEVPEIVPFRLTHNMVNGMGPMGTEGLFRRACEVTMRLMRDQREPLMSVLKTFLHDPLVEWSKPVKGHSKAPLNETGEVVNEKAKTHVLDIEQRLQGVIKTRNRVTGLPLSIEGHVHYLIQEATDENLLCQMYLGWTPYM
T2 sequence (Q8WXE1 whole entry partner): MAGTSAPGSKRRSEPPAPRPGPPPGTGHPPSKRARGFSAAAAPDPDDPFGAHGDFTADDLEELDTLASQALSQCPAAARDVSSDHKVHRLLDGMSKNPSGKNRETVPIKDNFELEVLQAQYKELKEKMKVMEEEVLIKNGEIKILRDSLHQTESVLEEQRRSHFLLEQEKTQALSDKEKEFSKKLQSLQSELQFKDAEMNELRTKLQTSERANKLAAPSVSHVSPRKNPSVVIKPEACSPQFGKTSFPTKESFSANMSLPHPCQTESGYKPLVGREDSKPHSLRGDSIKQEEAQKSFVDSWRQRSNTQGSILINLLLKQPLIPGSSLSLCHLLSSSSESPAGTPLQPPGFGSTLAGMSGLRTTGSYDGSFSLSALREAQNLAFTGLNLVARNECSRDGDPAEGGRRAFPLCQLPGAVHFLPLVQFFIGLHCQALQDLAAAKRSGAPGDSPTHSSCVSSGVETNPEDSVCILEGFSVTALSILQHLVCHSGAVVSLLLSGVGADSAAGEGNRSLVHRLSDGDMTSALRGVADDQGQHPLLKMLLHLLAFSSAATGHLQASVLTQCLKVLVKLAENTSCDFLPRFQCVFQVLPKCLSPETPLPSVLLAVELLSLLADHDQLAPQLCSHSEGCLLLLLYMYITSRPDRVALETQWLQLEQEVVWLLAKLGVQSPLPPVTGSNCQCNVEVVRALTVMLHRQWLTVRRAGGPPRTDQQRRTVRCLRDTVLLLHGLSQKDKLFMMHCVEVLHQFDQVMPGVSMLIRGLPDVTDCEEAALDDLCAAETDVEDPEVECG

Compound	PARP1-trapping potency relative to JC099 (PARP1 in the chromatin-bound fraction) (PARP1; PC3 cells)	ATR inhibition potency relative to JC099 (OLA- or UV-induced phosphorylation of Rad17 and CHK1) (ATR)	PARP1 trapped on DNA lesions (PARP1; 0.3 μM, PC3 cells)	Olaparib induced phosphorylation of Rad17 at Ser 645 and CHK1 at Ser 345 (ATR; 1 μM and 2 μM, PC3 cells)	also measured
CCN(CC)C(=O)c1ccc(C(=O)NC2C/C(=C\c3ccc(F)c(F)c3)C(=O)/C(=C/c3ccc(F)c(F)c3)C2)c2nn(C)cc12 (stereo not shown) [JCS003, N^7-(3,5-bis((E)-3,4-difluorobenzylidene)-4-oxocyclohexyl)-N^4,N^4-diethyl-2-methyl-2H-indazole-4,7-dicarboxamide]					PARP1 trapped on DNA lesions (PARP1; 0.5 μM, PC3 and C4-2B/MR cells): trapped; Olaparib induced phosphorylation of CHK1 at Ser 345 (ATR; 0.5 μM, 1 μM, 2 μM, PC3 and SUM149PT-BRCA1rev cells): inhibited; Olaparib induced phosphorylation of Rad17 at Ser 645 and CHK1 at Ser 345 (ATR; 2 μM, PC3 cells): inhibited
CCN(CC)C(=O)c1ccc(C2C/C(=C\c3ccc(F)c(F)c3)C(=O)/C(=C/c3ccc(F)c(F)c3)C2)c2nn(C)cc12 (stereo not shown) [JCS004, 7-(3,5-bis((E)-3,4-difluorobenzylidene)-4-oxocyclohexyl)-N,N-diethyl-2-methyl-2H-indazole-4-carboxamide]					PARP1 trapped on DNA lesions (PARP1; [1]): trapped; UV induced phosphorylation of CHK1 at Ser 345 (ATR; [2]): inhibited
CCN(CC)C(=O)c1ccc(C2C/C(=C\c3ccc(F)c(F)c3)C(=O)/C(=C/c3ccc(F)c(F)c3)C2)c2[nH]ncc12 (stereo not shown) [JCS005, 7-(3,5-bis((E)-3,4-difluorobenzylidene)-4-oxocyclohexyl)-N,N-diethyl-1H-indazole-4-carboxamide]					PARP1 trapped on DNA lesions (PARP1; [1]): trapped; UV induced phosphorylation of CHK1 at Ser 345 (ATR; [2]): inhibited
CCN(CC)C(=O)c1ccc(C(=O)NC2C/C(=C\c3ccc(F)c(F)c3)C(=O)/C(=C/c3ccc(F)c(F)c3)C2)c2[nH]ncc12 (stereo not shown) [JCS006, N^7-(3,5-bis((E)-3,4-difluorobenzylidene)-4-oxocyclohexyl)-N^4,N^4-diethyl-1H-indazole-4,7-dicarboxamide]					PARP1 trapped on DNA lesions (PARP1; 0.5 μM, PC3 and C4-2B/MR cells): trapped; Olaparib induced phosphorylation of Rad17 at Ser 645 and CHK1 at Ser 345 (ATR; 2 μM, PC3 cells): inhibited
O=C1/C(=C/c2ccc(F)c(F)c2)CC(NC(=O)c2ccc(OCCN3CCCC3)cc2)C/C1=C\c1ccc(F)c(F)c1 (stereo not shown) [JCS008, N-(3,5-Bis((E)-3,4-difluorobenzylidene)-4-oxocyclohexyl)-4-(2-(pyrrolidin-1-yl)ethoxy)benzamide]	higher potency in PARP1-trapping				PARP1 trapped on DNA lesions (PARP1; 0.5 μM and 2 μM, PC3 cells): trapped; Olaparib induced phosphorylation of Rad17 at Ser 645 and CHK1 at Ser 345 (ATR; 1 μM and 2 μM, PC3 and MDA-MB-231 cells): inhibited
CCCCN(CCCC)CCOc1ccc(C(=O)NC2C/C(=C\c3ccc(F)c(F)c3)C(=O)/C(=C/c3ccc(F)c(F)c3)C2)cc1 (stereo not shown) [JCS012, N-(3,5-Bis((E)-3,4-difluorobenzylidene)-4-oxocyclohexyl)-4-(2-(dibutylamino)ethoxy)benzamide]	higher potency in PARP1-trapping	greater ATR inhibition potential			PARP1 trapped on DNA lesions (PARP1; 0.5 μM and 2 μM, PC3 cells): trapped
CN1CCN(CC(=O)Nc2ccc(C(=O)NC3C/C(=C\c4ccc(F)c(F)c4)C(=O)/C(=C/c4ccc(F)c(F)c4)C3)cc2)CC1 (stereo not shown) [JCS050, N-(3,5-bis((E)-3,4-difluorobenzylidene)-4-oxocyclohexyl)-4-(2-(4-methylpiperazin-1-yl)acetamido)benzamide]	higher potency in PARP1-trapping	greater ATR inhibition potential	trapped		
CN(C)CCCN(CCCN(C)C)C(=O)Nc1ccc(C(=O)NC2C/C(=C\c3ccc(F)c(F)c3)C(=O)/C(=C/c3ccc(F)c(F)c3)C2)cc1 (stereo not shown) [JCS058, N-(3,5-bis((E)-3,4-difluorobenzylidene)-4-oxocyclohexyl)-4-(3,3-bis(3-(dimethylamino)propyl)ureido)benzamide]			trapped	inhibited	
CCN(CC)C(=O)Nc1ccc(C(=O)NC2C/C(=C\c3ccc(F)c(F)c3)C(=O)/C(=C/c3ccc(F)c(F)c3)C2)cc1 (stereo not shown) [JCS059, N-(3,5-bis((E)-3,4-difluorobenzylidene)-4-oxocyclohexyl)-4-(3,3-diethylureido)benzamide]			trapped	inhibited	
CCCCN(CCCC)C(=O)Nc1ccc(C(=O)NC2C/C(=C\c3ccc(F)c(F)c3)C(=O)/C(=C/c3ccc(F)c(F)c3)C2)cc1 (stereo not shown) [JCS060, N-(3,5-bis((E)-3,4-difluorobenzylidene)-4-oxocyclohexyl)-4-(3,3-dibutylureido)benzamide]	higher potency in PARP1-trapping		trapped	inhibited	
O=C1/C(=C/c2cc(Cl)cc(Cl)c2)CC(NC(=O)c2ccc(OCCN3CCCCC3)cc2)C/C1=C\c1cc(Cl)cc(Cl)c1 (stereo not shown) [JCS061, N-(3,5-Bis((E)-3,5-dichlorobenzylidene)-4-oxocyclohexyl)-4-(2-(piperidin-1-yl)ethoxy)benzamide]			trapped	inhibited	
CCCN(CCC)CCOc1ccc(C(=O)NC2C/C(=C\c3cc(Cl)cc(Cl)c3)C(=O)/C(=C/c3cc(Cl)cc(Cl)c3)C2)cc1 (stereo not shown) [JCS062, N-(3,5-Bis((E)-3,5-dichlorobenzylidene)-4-oxocyclohexyl)-4-(2-(dipropylamino)ethoxy)benzamide]			trapped	inhibited	
O=C1/C(=C/c2ccc(F)c(F)c2)CC(NC(=O)c2ccc3c(ccn3CCN3CCCC3)c2)C/C1=C\c1ccc(F)c(F)c1 (stereo not shown) [JCS075, N-(3,5-bis((E)-3,4-difluorobenzylidene)-4-oxocyclohexyl)-1-(2-(pyrrolidin-1-yl)ethyl)-1H-indole-5-carboxamide]	increased the accumulation of PARP1 in the chromatin-bound fraction than JC099			decreased the phosphorylation of Rad17 and CHK1	
O=C1/C(=C/c2ccc(F)c(F)c2)CC(NC(=O)c2cnc(NCCN3CCCC3)cc2C(F)(F)F)C/C1=C\c1ccc(F)c(F)c1 (stereo not shown) [JCS094, N-(3,5-Bis((E)-3,4-difluorobenzylidene)-4-oxocyclohexyl)-6-((2-(pyrrolidin-1-yl)ethyl)amino)-4-(trifluoromethyl)nicotinamide]	higher potency in PARP1-trapping	their potencies were close to JC099			
CCN(CCOC)CCOc1ccc(C(=O)NC2C/C(=C\c3ccc(F)c(F)c3)C(=O)/C(=C/c3ccc(F)c(F)c3)C2)cc1 (stereo not shown) [JCS109, N-(3,5-Bis((E)-3,4-difluorobenzylidene)-4-oxocyclohexyl)-4-(2-(ethyl(2-methoxyethyl)amino)eth-oxy)benzamide]	higher potency in PARP1-trapping	greater ATR inhibition potential			
O=C1/C(=C/c2ccc(F)c(F)c2)CC(NC(=O)c2ccc(OCCN3CCCCC3)nc2)C/C1=C\c1ccc(F)c(F)c1 (stereo not shown) [JCS116, N-(3,5-Bis((E)-3,4-difluorobenzylidene)-4-oxocyclohexyl)-6-(2-(piperidin-1-yl)ethoxy)nicotinamide]		less ATR inhibition potencies			
CCN(CC)CCOc1nncc2cc(C(=O)NC3C/C(=C\c4ccc(F)c(F)c4)C(=O)/C(=C/c4ccc(F)c(F)c4)C3)ccc12 (stereo not shown) [JCS133, N-(3,5-Bis((E)-3,4-difluorobenzylidene)-4-oxocyclohexyl)-1-(2-(diethylamino)ethoxy)phthalazine-6-carboxamide]	higher potency in PARP1-trapping	their potencies were close to JC099			
COCCN(CCOC)CCOc1ccc(C(=O)NC2C/C(=C\c3cc(F)c(F)c(OC)c3)C(=O)/C(=C/c3cc(F)c(F)c(OC)c3)C2)cc1 (stereo not shown) [JCS153, N-(3,5-Bis((E)-3,4-difluoro-5-methoxybenzylidene)-4-oxocyclohexyl)-4-(2-(bis(2-methoxyethyl)ami-no)ethoxy)benzamide]		greater ATR inhibition potential			
CCN1CCC[C@H]1CNc1ccc(C(=O)NC2C/C(=C\c3ccc(F)c(F)c3F)C(=O)/C(=C/c3ccc(F)c(F)c3F)C2)cc1 (stereo partly drawn) [JCS157, 4-((((S)-1-Ethylpyrrolidin-2-yl)methyl)amino)-N-(4-oxo-3,5-bis((E)-2,3,4-trifluorobenzylidene)-cyclohexyl)benzamide]		less ATR inhibition potencies			
